Measured values: patent US10683293B2, “Optionally fused heterocyclyl-substituted derivatives of pyrimidine useful for the treatment of inflammatory, metabolic, oncologic and autoimmune diseases” (NUEVOLUTION A/S, priority 2014, dated 2020)

Tests used:
[1] = biological target: T1, ligand binding domain of human RORγ (Homo sapiens, UniProt P51449); assay: RORγ Reporter Assay (Gal4); type: cell-based; settings: for inhibition at 1 µM: HEK-293T, 1 μM test compound, HEK293t RORγ reporter cells, 24 hour, read-out: Gal4 activity range @ 1 μM (% inhibition); for Gal4 activity range @ 0.1 μM (% inhibition): RORγ Reporter Assay (Gal4), HEK293t reporter cells, compound at 0.1 μM, values are activity range bounds
T1 construct: host or cells: HEK293t
T1 sequence (P51449 269-508 limits assumed): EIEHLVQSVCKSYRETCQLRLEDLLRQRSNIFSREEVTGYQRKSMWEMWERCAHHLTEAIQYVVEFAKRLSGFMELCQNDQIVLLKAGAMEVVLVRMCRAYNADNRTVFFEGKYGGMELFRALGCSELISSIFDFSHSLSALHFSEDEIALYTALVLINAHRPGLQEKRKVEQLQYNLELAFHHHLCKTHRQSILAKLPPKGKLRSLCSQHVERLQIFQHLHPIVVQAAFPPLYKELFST
Summary of the method: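 HEK293t cells expressing Gal4 DBD–human RORγ LBD hybrid with Gal4-UAS firefly luciferase reporter; compounds at final 1,000 nM and 100 nM (0.1% DMSO), triplicate, medium with 10% charcoal-stripped FBS, 24 h at 37 °C. Luminescence read; percent reduction of RORγ activity calculated versus vehicle-only wells.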

male DBA/1J mice = assay: Collagen-Induced Arthritis (CIA) Study; type: in vivo, mouse; settings: 30 mg/kg, orally twice daily, therapeutic setting (from day 27 until day 41)
From the text: Compounds disclosed herein have also been evaluated in two different mouse in vivo disease models: Experimental Autoimmune Encephalomyelitis (EAE) model (an animal model for multiple sclerosis), and Collagen-induced Arthritis (CIA) model (an animal model for rheumatoid arthritis).
Collagen-Induced Arthritis (CIA) Study
Collagen-induced arthritis is an animal model of rheumatoid arthritis used to evaluate the efficacy of test compounds. CIA was induced at Washington Biotechnology Inc. (Baltimore) in male DBA/1J mice (Jackson Laboratories) by subcutaneous injection at the base of the tail with 50 μl of a bovine collagen/complete Freund's adjuvant emulsion. After 21 days, the mice were further boosted by a further subcutaneous injection of 50 μl of a collagen/incomplete Freund's adjuvant emulsion. For treatment, compound or vehicle (2% DMSO, 10% HP-β-CD in MilliQ water) was given orally twice daily at various doses selected from 3, 10, 30 mg/kg, beginning at the day of CIA induction (Prophylactic setting), or after disease initiation (at day 27, therapeutic setting). Treatment lasted until day 41, and the animals were scored three times weekly. Each paw was scored and the sum of all four scores was recorded as the Arthritic Index (AI). […] The Arthritis Index for each treatment can be expressed as the mean score for each treatment group+/−S.E.M.

[2] = biological target: T2, human RORγt (Ligand Binding Domain) (Homo sapiens, UniProt P51449); assay: Fluorescence Polarization (FP) Assay; settings: 100 nM human RORγt LBD, 25 nM TAMRA probe, values are activity range bounds
T2 construct: purchased Crelux (Planegg, Germany) batch no PC5032-1
T2 sequence (P51449 269-508 limits assumed): T1 sequence (P51449 269-508 limits assumed)
Summary of the method: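 Binding to the RORγt ligand-binding domain was followed by FP. Displacement of a TAMRA-tagged RORγt ligand tracer (910 g/mol) was measured, with DMSO-only wells as negative control.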

female C57BL/6 mice = assay: Experimental Autoimmune Encephalomyelitis (EAE) Study; type: in vivo, mouse; settings: 30 mg/kg, orally twice daily, from day of EAE induction, 25 days

| SMILES | inhibition at 1 µM [1] | Gal4 activity range @ 0.1 μM (% inhibition) [1] | IC50 [2] | disease severity (CIA, Arthritic Index) (male DBA/1J mice) | rate of disease development (CIA) (male DBA/1J mice) | EAE clinical score (female C57BL/6 mice) | onset of EAE (female C57BL/6 mice) |
| --- | --- | --- | --- | --- | --- | --- | --- |
| CS(=O)(=O)N1CCC(CNc2ncnc(N(Cc3ccc(C(F)(F)F)cc3)C3CC3)c2F)CC1 [Example A7, N4-cyclopropyl-5-fluoro-N6-[(1-methylsulfonyl-4-piperidyl)methyl]-N4-[[4-(trifluoromethyl)phenyl]methyl] pyrimidine-4,6-diamine] | > 80% | >80 % inhibition | < 500 nM | significantly reduce disease severity | decrease rate of disease development | significantly lower the clinical score | delay onset |
| CS(=O)(=O)N1CCC(C2(Nc3ncnc(N(Cc4ccc(C(F)(F)F)cc4)C4CC4)c3F)CC2)CC1 [Example A165, N6-cyclopropyl-5-fluoro-N4-[1-(1-methylsulfonyl-4-piperidyl)cyclopropyl]-N6-[[4-(trifluoromethyl)phenyl]methyl] pyrimidine-4,6-diamine] | > 80% | >50 % inhibition | < 500 nM |  |  |  |  |
| O=C(C1CC1)N1CCC(CNc2ncnc(N(Cc3ccc(C(F)(F)F)cc3)C3CC3)c2F)CC1 [Example A167, cyclopropyl-[4-[[[6-[cyclopropyl-[[4-(trifluoromethyl)phenyl]methyl]amino]-5-fluoro-pyrimidin-4-yl]amino]methyl]-1-piperidyl]methanone] | > 80% | >50 % inhibition | < 500 nM |  |  |  |  |
| NC(=O)Cc1ccc(CNc2ncnc(N(Cc3ccc(C(F)(F)F)cc3O)C3CC3)c2F)cc1 [Example A168, 2-[4-[[[6-[cyclopropyl-[[2-hydroxy-4-(trifluoromethyl)phenyl]methyl]amino]-5-fluoro-pyrimidin-4-yl]amino]methyl]phenyl]acetamide] | > 80% | >50 % inhibition | < 500 nM |  |  |  |  |
| CS(=O)(=O)N1CCC2(CC1)CC2Nc1ncnc(N(Cc2ccc(C(F)(F)F)cc2)C2CC2)c1F (stereo not shown) [Example A169, N6-cyclopropyl-5-fluoro-N4-(6-methylsulfonyl-6-azaspiro[2.5]octan-2-yl)-N6-[[4-(trifluoromethyl)phenyl]methyl] pyrimidine-4,6-diamine] | > 80% | >80 % inhibition | < 500 nM |  |  |  |  |
| NC(=O)Cc1ccc(CNc2ncnc(N(Cc3ccnc(C(F)(F)F)c3)C3CC3)c2F)cc1 [Example A170, 2-[4-[[[6-[cyclopropyl-[[2-(trifluoromethyl)-4-pyridyl]methyl]amino]-5-fluoro-pyrimidin-4-yl]amino]methyl]phenyl]acetamide] | > 50% | >20 % inhibition | < 500 nM |  |  |  |  |
| CS(=O)(=O)N1[C@@H]2CC[C@H]1CC(CNc1ncnc(N(Cc3ccc(C(F)(F)F)cc3)C3CC3)c1F)C2 (stereo partly drawn) [Example A171, N6-cyclopropyl-5-fluoro-N4-[[(1S,5R)-8-methylsulfonyl-8-azabicyclo[3.2.1]octan-3-yl]methyl]-N6-[[4-(trifluoromethyl)phenyl]methyl] pyrimidine-4,6-diamine] | > 80% | >80 % inhibition | < 500 nM |  |  |  |  |

Second part, led by results:

| inhibition at 1 µM [1] | Gal4 activity range @ 0.1 μM (% inhibition) [1] | IC50 [2] | SMILES | disease severity (CIA, Arthritic Index) (male DBA/1J mice) | rate of disease development (CIA) (male DBA/1J mice) | EAE clinical score (female C57BL/6 mice) | onset of EAE (female C57BL/6 mice) |
| --- | --- | --- | --- | --- | --- | --- | --- |
| > 80% | >20 % inhibition | < 2000 nM | CS(=O)(=O)N1CCC2(CC2Nc2ncnc(N(Cc3ccc(C(F)(F)F)cc3)C3CC3)c2F)C1 (stereo not shown) [Example A172, N6-cyclopropyl-5-fluoro-N4-(6-methylsulfonyl-6-azaspiro[2.4]heptan-2-yl)-N6-[[4-(trifluoromethyl)phenyl]methyl] pyrimidine-4,6-diamine] |  |  |  |  |
| > 80% | >20 % inhibition | < 500 nM | CS(=O)(=O)N1CC2CC2(CNc2ncnc(N(Cc3ccc(C(F)(F)F)cc3)C3CC3)c2F)C1 (stereo not shown) [Example A174, N6-cyclopropyl-5-fluoro-N4-[(3-methylsulfonyl-3-azabicyclo[3.1.0]hexan-5-yl)methyl]-N6-[[4-(trifluoromethyl)phenyl]methyl] pyrimidine-4,6-diamine] |  |  |  |  |
| > 80% | >50 % inhibition | < 500 nM | CS(=O)(=O)N1CC2CCC(Nc3ncnc(N(Cc4ccc(C(F)(F)F)cc4)C4CC4)c3F)C2C1 (stereo not shown) [Example A175, N6-cyclopropyl-5-fluoro-N4-(2-methylsulfonyl-3,3a,4,5,6,6a-hexahydro-1H-cyclopenta[c]pyrrol-4-yl)-N6-[[4-(trifluoromethyl)phenyl]methyl] pyrimidine-4,6-diamine] |  |  |  |  |
| > 50% | >0 % inhibition | < 500 nM | NC(=O)Cc1ccc(CNc2ncnc(N(Cc3cccc(C(F)(F)F)n3)C3CC3)c2F)cc1 [Example A176, 2-[4-[[[6-[cyclopropyl-[[6-(trifluoromethyl)-2-pyridyl]methyl]amino]-5-fluoro-pyrimidin-4-yl]amino]methyl]phenyl]acetamide] |  |  |  |  |
| > 20% | >0 % inhibition | < 500 nM | NC(=O)Cc1ccc(CNc2ncnc(N(Cc3cc(C(F)(F)F)ccn3)C3CC3)c2F)cc1 [Example A178, 2-[4-[[[6-[cyclopropyl-[[4-(trifluoromethyl)-2-pyridyl]methyl]amino]-5-fluoro-pyrimidin-4-yl]amino]methyl]phenyl]acetamide] |  |  |  |  |
| > 80% | >20 % inhibition | < 500 nM | NC(=O)Cc1ccc(CNc2ncnc(N(Cc3ccc(C(F)F)nc3)C3CC3)c2F)cc1 [Example A179, 2-[4-[[[6-[cyclopropyl-[[6-(difluoromethyl)-3-pyridyl]methyl]amino]-5-fluoro-pyrimidin-4-yl]amino]methyl]phenyl]acetamide] |  |  |  |  |
| > 80% | >0 % inhibition | < 500 nM | O=C(O)C[C@@H](CCc1ccccc1)Nc1ncnc(N(Cc2ccc(C(F)(F)F)cc2)C2CC2)c1F [Example A181, (3R)-3-[[6-[cyclopropyl-[[4-(trifluoromethyl)phenyl]methyl]amino]-5-fluoro-pyrimidin-4-yl]amino]-5-phenyl-pentanoic acid] |  |  |  |  |
| > 80% | >80 % inhibition | < 500 nM | NC(=O)Cc1ccc(Cn2ccc3c(N(Cc4ccc(C(F)(F)F)cc4)C4CC4)ncnc32)cc1 [Example I1, 2-(4-((4-(cyclopropyl (4-(trifluoromethyl)benzyl)amino)-7H-pyrrolo[2,3-d]pyrimidin-7-yl)methyl)phenyl)acetamide] |  |  |  |  |
| > 80% | >50 % inhibition | < 500 nM | Fc1c(NCc2ccc(Cc3nnn[nH]3)cc2)ncnc1N(Cc1ccc(C(F)(F)F)cc1)C1CC1 [Example T1, N6-cyclopropyl-5-fluoro-N4-[[4-(1H-tetrazol-5-ylmethyl)phenyl]methyl]-N6-[[4-(trifluoromethyl)phenyl]methyl] pyrimidine-4,6-diamine] |  |  |  |  |
| > 50% | >20 % inhibition | < 500 nM | O=S(=O)(CC(F)(F)F)NC1CCC(CNc2ncnc(N(Cc3ccc(C(F)(F)F)cc3)C3CC3)c2F)CC1 (stereo not shown) [x, N-[4-[[[6-[cyclopropyl-[[4-(trifluoromethyl)phenyl]methyl]amino]-5-fluoro-pyrimidin-4-yl]amino]methyl]cyclohexyl]-2,2,2-trifluoro-ethanesulfonamide] |  |  |  |  |
